Consider 7 molecules from patent US6423508B1, “Polynucleotide sequences of human EDG-1c” (SmithKline Beecham Corporation, priority 1998, dated 2002).

Usually EC50 stands for the concentration giving half of the maximal effect.

Assay [1] relates to endogenous receptors of RBL 2H3 cells. Kind of assay: Responses of control ligands of endogenous receptors in RBL 2H3 EDG-1c cells (calcium mobilization, FLIPR). The settings on record: FIG. 8. The assay is classed as cell-based. As to the method: (§1) A number of cell lines were examined to identify one that would not respond to S-1-P through an endogenous receptor. […] Stable cell lines of the EDG1-c receptor were prepared in RBL 2H3 cell line. The expression of functionally active clones were followed using Fluorescent imaging plate reader (FLIPR).
(Calcium assays in cells follow changes in intracellular calcium, usually with a dye or a luminescent sensor.)

Assay [2] concerns isolated perfused rabbit heart. Kind of assay: Functional effects on isolated perfused rabbit heart. The following applies: 10 nM. The method, then:
The functional effects of […] have been examined in isolated perfused rabbit heart. […] An increased in AoP (aortic pressure), reflecting a vasoconstrictor effect was observed, i.e., about 30% of increase at 5 min of treatment compared to the vehicle (methanol 0.001%).

In assay [3] the target is T1, human EDG-1c receptor (Homo sapiens, UniProt P21453).
T1 construct: expressed in transfected cells
T1 sequence (P21453 whole entry): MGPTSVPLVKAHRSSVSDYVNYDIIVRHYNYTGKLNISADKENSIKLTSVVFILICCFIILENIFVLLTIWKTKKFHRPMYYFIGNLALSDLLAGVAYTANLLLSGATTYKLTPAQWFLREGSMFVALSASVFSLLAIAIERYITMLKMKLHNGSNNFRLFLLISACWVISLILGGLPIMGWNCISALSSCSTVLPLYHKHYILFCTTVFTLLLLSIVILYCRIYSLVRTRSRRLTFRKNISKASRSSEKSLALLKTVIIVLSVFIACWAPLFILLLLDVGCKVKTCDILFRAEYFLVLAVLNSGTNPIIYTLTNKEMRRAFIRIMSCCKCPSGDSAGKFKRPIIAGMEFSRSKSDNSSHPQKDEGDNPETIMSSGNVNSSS
In words: Calcium mobilization in RBL 2H3 cells stably transfected with human EDG-1c receptor (FLIPR). The assay is classed as cell-based. As to the method: as §1

The target in assay [4] is T1, human EDG-1c receptor. Kind of assay: S-1-P-induced FUS1-LacZ reporter gene expression in yeast expressing human EDG-1c. The settings on record: yeast FUS1-LacZ cells expressing human EDG-1c, FIG. 5. The assay is classed as cell-based. From the text: The yeast strain(s) used contain mutations in genes in the pheromone response pathway, e.g., (i) deletion of the STE2 or STE3 gene encoding the endogenous G-protein coupled pheromone receptors; (ii) deletion of the FAR1 gene encoding a protein that normally associates with cyclin-dependent kinases leading to cell cycle arrest; and (iii) construction of reporter genes fused to the FUS1 gene promoter (where FUS1 encodes a membrane-anchored glycoprotein required for cell fusion). The downstream reporter (FUS1-LacZ) permits a colorimetric or fluorimetric readout in response to ligand.
In general terms: In a reporter assay the amount or activity of a reporter protein is the signal.

The test system of assay [5] is rat neonatal cardiomyocytes. Kind of assay: Cellular hypertrophy in rat neonatal cardiomyocytes in culture. The assay is classed as cell-based. As to the method:
[…] was tested in its ability to induce hypertrophy in an in vitro neonatal cardiomyocyte model. The assessment of cardiomyocyte hypertrophy is measured using four different parameters: protein synthesis (tritiated phenylalanine incorporation and protein content increase), tritiated thymidine incorporation (evaluation of fibroblast contamination), Brain Natriuretic Peptide (BNP) release and morphological parameters. Phenylephrine (PE) at 100 μM concentration is used as internal control experiments. […] Cardiomyocytes in culture display features of myocyte hypertrophy observed in vivo, such as changes in morphology (vizualised using light microscopy after staining with crystal violet), protein content, and pattern of gene expression.

The subject of assay [6] is untransfected HEK 293 cells (endogenous receptors that respond to S-1-P). In words: S-1-P-induced Ca2+ mobilization in untransfected HEK 293 cells (FLIPR). The assay is classed as cell-based. The settings on record: FIG. 3. From the text:
The data were generated with the 96 well Fluorescent Imaging Plate Reader (FLIPR). Each point is the mean of 6-8 wells read on FLIPR.

Like-named read-outs stand apart in the source and are kept apart here.

On to `Nc1ncnc2c1ncn2[C@@H]1O[C@H](COP(=O)(O)OP(=O)(O)OP(=O)(O)O)[C@@H](O)[C@H]1O` [ATP], for which the “EC50 of endogenous-receptor ligands” value in assay [1] was “expected EC50 values”.
In the case of `C[C@@H]1O[C@H](C[N+](C)(C)C)C[C@H]1O` [Muscarine], in assay [1], the “response of RBL 2H3 EDG-1c cells to control ligand” value was “did not respond”.
Take `CCCCCCCCCCCCC/C=C/[C@@H](O)[C@@H](N)COP(=O)(O)O` [S-1-P, sphingosine 1-phosphate]: the “LVEDP (left ventricular end-diastolic pressure)” value in assay [2] is “marked reduction”. For the same molecule, the “increase in AoP (aortic pressure), vasoconstrictor effect” value in assay [2] (at 5 min of treatment, compared to the vehicle (methanol 0.001%)) is given as “about 30%”. Besides, the “inotropic effect (pressure value)” value in assay [2] (at 10 min of drug administration, controls 96.09±6 mm Hg) is given as 84.7±6.3 mm Hg. In addition, the EC50 on human EDG-1c receptor [3] (several RBL 2H3 EDG1-c clones, FIG. 7, read-out: EC50, calcium mobilization, best clones) lay in the range of 10 to 20 nM. Further, the “expression of beta-galactosidase (FUS1-LacZ reporter response)” value at human EDG-1c receptor [4] is reported as “receptor-dependent response”. Further, the “cellular hypertrophy (increase of protein content, phenylalanine incorporation and BNP secretion to control cell values)” value in assay [5] (10 nM, 100 nM and 1 μM (n=3), each concentration) is recorded as “induced a cellular hypertrophy”. In assay [5] (1 μM (n=3)), the “increase of phenylalanine incorporation to the control cell values” was 30.1%±9.2, the “increase of protein content to the control cell values” was 35.6%±6.3 and the “increase of thymidine incorporation to the control cell values” was 11.4%±1.8. In assay [5] (S-1-P treated cardiomyocyte vs. control), the “BNP secretion vs. control” value is recorded as “four fold higher”. Also, the calcium mobilization response entry in assay [6] is “robust calcium mobilization response”.
Take `CCCCCCCCCCCCCCCC(O)C(N)COP(=O)(O)O` (stereo not drawn) [dihydro-S-1-P, di-hydro sphingosine 1-phosphate]: on human EDG-1c receptor [3], the EC50 is 10 to 20 nM.
On to `CCCCC/C=C\C\C=C/C=C/C=C/[C@@H](SC[C@H](N)C(=O)NCC(=O)O)[C@@H](O)CCCC(=O)O` [leukotriene D4], for which the “EC50 of endogenous-receptor ligands” value in assay [1] is “expected EC50 values”.
With lysophosphatidic acid, on human EDG-1c receptor [3] (best clones, FIG. 8), the “calcium mobilization response of RBL 2H3 EDG-1c cells” value is given as “did not respond”.
Regarding sphingosine phosphorylcholine, on human EDG-1c receptor [3] (best clones, FIG. 8), the “EC50, calcium mobilization through the EDG1-c receptor (in words)” value is given as “in the uM range” and the “calcium mobilization response of RBL 2H3 EDG-1c cells” value is “weakly”.
